Measurements published in patent US20020137929A1, “1 - (3-heterocyclylphenyl) isothiourea, -isourea, -guanidine and -amidine herbicidal agents” (Intellectual Property Department, BASF Aktiengesellschaft, priority 1998, published 2002).

Key:
[1] = tested on: ABUTH (Velvetleaf); assay: Preemergence herbicidal evaluation; type: in vivo, Abutilon theophrasti; settings: preemergence, rated 4-5 weeks after treatment, 0-9 scale
How it was run: (§1)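 Scores use a 0–9 visual scale covering stand, vigor, malformation, size and chlorosis relative to controls, rated four to five weeks after treatment. Before emergence, soil-planted seeds were sprayed with compound in aqueous acetone at roughly 0.0156–0.500 kg/ha and held in the greenhouse.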

[2] = tested on: CASOB (Sicklepod); assay: Postemergence herbicidal evaluation; type: in vivo, Cassia obtusifolia; settings: postemergence
How it was run: (§2)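 Each compound, dispersed in an acetone/water mix (50/50) carrying 0.5% TWEEN 20, is nozzle-sprayed at 40 psi on approximately two-week-old seedlings at about 0.0156–0.500 kg/ha. Plants are assessed 4–5 weeks afterward on a 0–9 scale relative to control; duplicate tests are averaged.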

[3] = tested on: TRZAWR (Wheat, Winter, cv Riband); assay: Preemergence herbicidal evaluation; type: in vivo, Triticum aestivum; settings: preemergence, rated 4-5 weeks after treatment, 0-9 scale
How it was run: as §1

[4] = tested on: ECHCG (Barnyardgrass); assay: Preemergence herbicidal evaluation; type: in vivo, Echinochloa crus-galli; settings: preemergence, rated 4-5 weeks after treatment, 0-9 scale
How it was run: as §1

[5] = tested on: CASOB (Sicklepod); assay: Preemergence herbicidal evaluation; type: in vivo, Cassia obtusifolia; settings: preemergence, rated 4-5 weeks after treatment, 0-9 scale
How it was run: as §1

[6] = tested on: IPOHE (Morningglory, Ivyleaf); assay: Postemergence herbicidal evaluation; type: in vivo, Ipomoea hederacea; settings: postemergence
How it was run: as §2

[7] = tested on: MOOVA (Monochoria); assay: Preemergence weed control under flooded paddy conditions; type: in vivo, Monochoria vaginalis; settings: rated 3-4 weeks after treatment
How it was run: (§3)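 Herbicidal effect is scored visually on a 0-9 scale against an untreated control, three to four weeks after compounds are pipetted into the flood water (1.5 to 3 cm deep) over seeds planted in silt loam at 0.5 cm depth. Rates: about 0.0313 to 0.500 kg/ha.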

[8] = tested on: GALAP (Galium); assay: Postemergence herbicidal evaluation; type: in vivo, Galium aparine; settings: postemergence
How it was run: as §2

[9] = tested on: IPOHE (Morningglory, Ivyleaf); assay: Preemergence herbicidal evaluation; type: in vivo, Ipomoea hederacea; settings: preemergence, rated 4-5 weeks after treatment, 0-9 scale
How it was run: as §1

[10] = tested on: GLXMAW (Soybean, Williams); assay: Preemergence herbicidal evaluation; type: in vivo, Glycine max, (L.) Merr. cv Williams; settings: preemergence, rated 4-5 weeks after treatment, 0-9 scale
How it was run: as §1

[11] = tested on: SAGPY (Arrowhead (Pygmaea)); assay: Preemergence weed control under flooded paddy conditions; type: in vivo, Sagittaria pygmaea; settings: rated 3-4 weeks after treatment
How it was run: as §3

[12] = tested on: ZEAMX (Corn, Field); assay: Preemergence herbicidal evaluation; type: in vivo, Zea mays; settings: preemergence, rated 4-5 weeks after treatment, 0-9 scale
How it was run: as §1

[13] = tested on: AMBEL (Ragweed, Common); assay: Postemergence herbicidal evaluation; type: in vivo, Ambrosia artemisifolia; settings: postemergence
How it was run: as §2

[14] = tested on: CYPIR (Rice Flatsedge); assay: Postemergence weed control under flooded paddy conditions; type: in vivo, Cyperus iria; settings: postemergence weeds, rated 3 to 4 weeks after treatment
How it was run: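 Flood-water application, about 0.0313–0.500 kg/ha a.i. in aqueous/acetone 50/50 v/v; water depth 1.5–3 cm throughout. Weeds 3–5 cm, rice 1.5–2.5 leaf. Greenhouse; 0–9 visual rating vs control at 3–4 wk.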

CCOC(=O)CN1C(=O)C(CC(=O)NS(=O)(=O)CC)SC1=Nc1cc(-n2c(=O)cc(C(F)(F)F)n(C)c2=O)c(F)cc1Cl (stereo not drawn) [Compound 103, Ethyl 2-{{2-chloro-5-[3,6-dihydro-3-methyl-2,6-dioxo-4-(trifluoromethyl)-1(2H)-pyrimidinyl]-4-fluorophenyl}imino}-5-{[(ethylsulfonyl)carbamoyl]-methyl}-4-oxo-3-thiazolidineacetate]
3.0: herbicidal rating CASOB ([2]; rate 0.0313 kg/ha) | herbicidal rating CASOB ([2]; rate 0.0625 kg/ha) | herbicidal rating CASOB ([2]; rate 0.1250 kg/ha) | CASOB rating ([5]; 0.2500 kg/ha) | CASOB rating ([5]; 0.5000 kg/ha) | herbicidal rating GALAP ([8]; rate 0.0313 kg/ha) | IPOHE rating ([9]; 0.1250 kg/ha) | GLXMAW rating ([10]; 0.5000 kg/ha)
2.0: ECHCG rating ([4]; 0.5000 kg/ha)
6.0: Herbicidal rating CYPIR ([14]; Rate 0.0625 kg/ha)
0.0: herbicidal rating CASOB ([2]; rate 0.0156 kg/ha) | TRZAWR rating ([3]; 0.0313 kg/ha) | TRZAWR rating ([3]; 0.0625 kg/ha) | TRZAWR rating ([3]; 0.1250 kg/ha) | TRZAWR rating ([3]; 0.2500 kg/ha) | ECHCG rating ([4]; 0.0313 kg/ha) | ECHCG rating ([4]; 0.0625 kg/ha) | ECHCG rating ([4]; 0.1250 kg/ha) | ECHCG rating ([4]; 0.2500 kg/ha) | CASOB rating ([5]; 0.0313 kg/ha) | CASOB rating ([5]; 0.0625 kg/ha) | CASOB rating ([5]; 0.1250 kg/ha) | herbicidal rating GALAP ([8]; rate 0.0156 kg/ha) | IPOHE rating ([9]; 0.0313 kg/ha) | IPOHE rating ([9]; 0.0625 kg/ha) | GLXMAW rating ([10]; 0.0313 kg/ha) | GLXMAW rating ([10]; 0.0625 kg/ha) | GLXMAW rating ([10]; 0.1250 kg/ha) | GLXMAW rating ([10]; 0.2500 kg/ha) | ZEAMX rating ([12]; 0.0313 kg/ha) | ZEAMX rating ([12]; 0.0625 kg/ha) | ZEAMX rating ([12]; 0.1250 kg/ha) | ZEAMX rating ([12]; 0.2500 kg/ha)
5.0: MOOVA herbicidal effect rating ([7]; 0.0313 kg/ha) | herbicidal rating GALAP ([8]; rate 0.0625 kg/ha) | IPOHE rating ([9]; 0.2500 kg/ha)
1.0: TRZAWR rating ([3]; 0.5000 kg/ha) | ZEAMX rating ([12]; 0.5000 kg/ha)
4.0: Herbicidal rating CYPIR ([14]; Rate 0.0313 kg/ha)
9.0: ABUTH rating ([1]; 0.0313 kg/ha) | ABUTH rating ([1]; 0.0625 kg/ha) | ABUTH rating ([1]; 0.1250 kg/ha) | ABUTH rating ([1]; 0.2500 kg/ha) | ABUTH rating ([1]; 0.5000 kg/ha) | herbicidal rating IPOHE ([6]; rate 0.0156 kg/ha) | herbicidal rating IPOHE ([6]; rate 0.0313 kg/ha) | herbicidal rating IPOHE ([6]; rate 0.0625 kg/ha) | herbicidal rating IPOHE ([6]; rate 0.1250 kg/ha) | MOOVA herbicidal effect rating ([7]; 0.1250 kg/ha) | MOOVA herbicidal effect rating ([7]; 0.2500 kg/ha) | IPOHE rating ([9]; 0.5000 kg/ha) | SAGPY herbicidal effect rating ([11]; 0.0625 kg/ha) | SAGPY herbicidal effect rating ([11]; 0.1250 kg/ha) | SAGPY herbicidal effect rating ([11]; 0.2500 kg/ha) | herbicidal rating AMBEL ([13]; rate 0.0156 kg/ha) | herbicidal rating AMBEL ([13]; rate 0.0313 kg/ha) | herbicidal rating AMBEL ([13]; rate 0.0625 kg/ha) | herbicidal rating AMBEL ([13]; rate 0.1250 kg/ha) | Herbicidal rating CYPIR ([14]; Rate 0.1250 kg/ha) | Herbicidal rating CYPIR ([14]; Rate 0.2500 kg/ha)
7.0: MOOVA herbicidal effect rating ([7]; 0.0625 kg/ha) | herbicidal rating GALAP ([8]; rate 0.1250 kg/ha) | SAGPY herbicidal effect rating ([11]; 0.0313 kg/ha)

CCOC(=O)CN1C(=O)C(CC(=O)NS(=O)(=O)c2ccccc2)SC1=Nc1cc(-n2c(=O)cc(C(F)(F)F)n(C)c2=O)c(F)cc1Cl (stereo not drawn) [Compound 100, Ethyl 2-{{2-chloro-5-[3,6-dihydro-3-methyl-2,6-dioxo-4-(trifluoromethyl)-1(2H)-pyrimidinyl]-4-fluorophenyl}imino}-4-oxo-5-{[(phenylsulfonyl)-carbamoyl]methyl]-3-thiazolidineacetate]
9.0: ABUTH rating ([1]; 0.2500 kg/ha) | ABUTH rating ([1]; 0.5000 kg/ha) | herbicidal rating CASOB ([2]; rate 0.1250 kg/ha) | herbicidal rating IPOHE ([6]; rate 0.0313 kg/ha) | herbicidal rating IPOHE ([6]; rate 0.0625 kg/ha) | herbicidal rating IPOHE ([6]; rate 0.1250 kg/ha) | MOOVA herbicidal effect rating ([7]; 0.0313 kg/ha) | MOOVA herbicidal effect rating ([7]; 0.0625 kg/ha) | MOOVA herbicidal effect rating ([7]; 0.1250 kg/ha) | MOOVA herbicidal effect rating ([7]; 0.2500 kg/ha) | MOOVA herbicidal effect rating ([7]; 0.5000 kg/ha) | herbicidal rating AMBEL ([13]; rate 0.0156 kg/ha) | herbicidal rating AMBEL ([13]; rate 0.0313 kg/ha) | herbicidal rating AMBEL ([13]; rate 0.0625 kg/ha) | Herbicidal rating CYPIR ([14]; Rate 0.5000 kg/ha)
1.0: TRZAWR rating ([3]; 0.1250 kg/ha) | TRZAWR rating ([3]; 0.5000 kg/ha) | ECHCG rating ([4]; 0.2500 kg/ha) | ECHCG rating ([4]; 0.5000 kg/ha) | herbicidal rating GALAP ([8]; rate 0.0156 kg/ha) | IPOHE rating ([9]; 0.0313 kg/ha) | GLXMAW rating ([10]; 0.0625 kg/ha) | GLXMAW rating ([10]; 0.1250 kg/ha) | ZEAMX rating ([12]; 0.5000 kg/ha)
5.0: herbicidal rating IPOHE ([6]; rate 0.0156 kg/ha) | IPOHE rating ([9]; 0.5000 kg/ha)
7.0: herbicidal rating CASOB ([2]; rate 0.0313 kg/ha) | herbicidal rating AMBEL ([13]; rate 0.1250 kg/ha)
6.0: herbicidal rating CASOB ([2]; rate 0.0625 kg/ha) | SAGPY herbicidal effect rating ([11]; 0.5000 kg/ha)
3.0: herbicidal rating GALAP ([8]; rate 0.0625 kg/ha) | herbicidal rating GALAP ([8]; rate 0.1250 kg/ha)
0.0: ABUTH rating ([1]; 0.0313 kg/ha) | ABUTH rating ([1]; 0.0625 kg/ha) | TRZAWR rating ([3]; 0.0313 kg/ha) | TRZAWR rating ([3]; 0.0625 kg/ha) | TRZAWR rating ([3]; 0.2500 kg/ha) | ECHCG rating ([4]; 0.0313 kg/ha) | ECHCG rating ([4]; 0.0625 kg/ha) | ECHCG rating ([4]; 0.1250 kg/ha) | CASOB rating ([5]; 0.0313 kg/ha) | CASOB rating ([5]; 0.0625 kg/ha) | CASOB rating ([5]; 0.1250 kg/ha) | CASOB rating ([5]; 0.2500 kg/ha) | IPOHE rating ([9]; 0.0625 kg/ha) | IPOHE rating ([9]; 0.1250 kg/ha) | GLXMAW rating ([10]; 0.0313 kg/ha) | GLXMAW rating ([10]; 0.2500 kg/ha) | SAGPY herbicidal effect rating ([11]; 0.0313 kg/ha) | SAGPY herbicidal effect rating ([11]; 0.0625 kg/ha) | SAGPY herbicidal effect rating ([11]; 0.1250 kg/ha) | ZEAMX rating ([12]; 0.0313 kg/ha) | ZEAMX rating ([12]; 0.0625 kg/ha) | ZEAMX rating ([12]; 0.1250 kg/ha) | ZEAMX rating ([12]; 0.2500 kg/ha) | Herbicidal rating CYPIR ([14]; Rate 0.0313 kg/ha) | Herbicidal rating CYPIR ([14]; Rate 0.0625 kg/ha) | Herbicidal rating CYPIR ([14]; Rate 0.1250 kg/ha)
8.0: CASOB rating ([5]; 0.5000 kg/ha)
2.0: ABUTH rating ([1]; 0.1250 kg/ha) | herbicidal rating CASOB ([2]; rate 0.0156 kg/ha) | herbicidal rating GALAP ([8]; rate 0.0313 kg/ha) | IPOHE rating ([9]; 0.2500 kg/ha) | GLXMAW rating ([10]; 0.5000 kg/ha)
4.0: SAGPY herbicidal effect rating ([11]; 0.2500 kg/ha) | Herbicidal rating CYPIR ([14]; Rate 0.2500 kg/ha)
